Where two headings read alike, the source gives them in different places.
Tested on: E. multilocularis metacestodes
Experiment: PGI-assay: drug-induced damage on in vitro cultured metacestodes (Pathogen Box screening cascade and EC50)
Type: cell-based, Echinococcus multilocularis
Conditions: for PGI release, % of the Tx-100 control, 5d / PGI release, % of the Tx-100 control, 12d / cytotoxicity at 10 µM: 10 µM, singlets; for cytotoxicity at 10 µM / PGI release, % of Tx-100 control at 10 µM: Echinococcus multilocularis
[1] = confirmatory screening at 10 µM in triplicates, 5 days of incubation, values as % of Tx-100 control
[2] = confirmatory screening at 10 µM in triplicates, 12 days of incubation, values as % of Tx-100 control
[3] = 120 h, 5 days of incubation, read-out: PGI release, % of the Tx-100 control, 5d
[4] = 288 h, 12 days of incubation, read-out: PGI release, % of the Tx-100 control, 12d

Row | Compound | PGI release, % of the Tx-100 control, 5d (5 days of incubation) [%] | PGI release, % of the Tx-100 control, 12d (12 days of incubation) [%] | other results
1 | CCc1ccc([C@@H]2C[C@H](C(F)(F)F)n3ncc(C(=O)NCc4ccc(OC)cc4)c3N2)cc1 [MMV687180] | -2.14 | -5.92 | –
2 | COc1ccc2nc(C)cc(OCC(=O)Nc3ccccc3OC)c2c1 [MMV687188] | 0.23 | 4.44 | –
3 | COc1ccc2nc(C)cc(OCC(=O)NCc3ccccc3)c2c1 [MMV687189] | -4.79 | 3.07 | –
4 | CC(C)(C(=O)Nc1ccc(F)cc1)n1cc(-c2ccccc2F)cn1 [MMV687239] | 0.07 | 101.93 | PGI release, % of Tx-100 control, average, 5d [1]: -0.64%; PGI release, % of Tx-100 control, average, 12d [2]: -1.06%
5 | NC(=O)c1cc(Br)ccc1OCCOc1ccccc1 [MMV687243] | 1.02 | -1.47 | –
6 | CN1CCN(S(=O)(=O)c2ccc(-c3ccc4c(Nc5ccc6n[nH]nc6c5)ccnc4c3)cc2)CC1 [MMV687246] | -0.71 | -0.69 | –
7 | Nc1nc2cc(-c3cncc(Oc4ccc(F)cc4)c3)ccc2[nH]1 [MMV687248] | 2.44 | 3.04 | –
8 | Cn1c(=O)c2c(S(C)(=O)=O)snc2n(C)c1=O [MMV687251] | 5.41 | 6.23 | –
9 | CCCCc1ccc(C(=O)Nc2nccc3ccccc23)nc1 [MMV687254] | -0.76 | -1.68 | –
10 | CC(C)=CCC/C(C)=C\CNCCNC1C2CC3CC(C2)CC1C3 (stereo not drawn) [MMV687273] | 8.55 | 5.83 | –
11 | CCc1nc2ccc(Cl)cn2c1C(=O)NCc1ccc(N2CCC(c3ccc(OC(F)(F)F)cc3)CC2)cc1 [MMV687696, Telacebec, Q203, reference compound] | -1.48 | 7.51 | –
12 | O=C(NCc1cc(Cl)cc(Cl)c1)c1c(C(F)(F)F)nc2ccccn12 [MMV687699] | 0.90 | 18.76 | –
13 | Nc1ncnc2c1ncn2[C@@H]1O[C@H](COS(=O)(=O)NC(=O)c2ccccc2O)[C@@H](O)[C@H]1O [MMV687700, Salicyl-AMS, reference compound] | -0.78 | -1.38 | –
14 | COc1cccc(-c2nc3c(N4CCCC4)cccc3n2CC2CCCN2)n1 (stereo not drawn) [MMV687703] | 1.13 | -0.35 | –
15 | c1ccc(Oc2ccc(-c3cc(N4CCNCC4)[nH]n3)cc2)cc1 [MMV687706] | -0.18 | 0.70 | –
16 | O=C1O[C@@H](CO)CN1c1cc(F)c(C2=CCN(Cc3ccccc3)CC2)c(F)c1 [MMV687729] | -0.40 | -0.63 | –
17 | CCCCOC(=O)Nc1cc2[nH]c(C3CCCCC3)nc2cc1N1CCCC1 [MMV687730] | 5.43 | 56.57 | PGI release, % of Tx-100 control, average, 5d (1 µM, triplicates, 5 days of incubation): 3.65%; PGI release, % of Tx-100 control, average, 12d (1 µM, triplicates, 12 days of incubation): -3.14%; activity in the screen at 10 μM (confirmed in triplicates, >20% relative PGI release) (10 μM, 5 and 12 days): active; PGI release, % of Tx-100 control, average, 5d [1]: 22.60%; PGI release, % of Tx-100 control, average, 12d [2]: 45.66%
18 | Cc1cc(OCC(=O)NCc2ccccc2)c2cc(Br)ccc2n1 [MMV687747] | -0.47 | 1.30 | –
19 | c1ccc(C[C@@H]2CN(c3nccc(Oc4ccc(-n5ccnc5)cc4)n3)CCN2)cc1 [MMV687749] | 5.87 | 6.61 | –
20 | c1ccc(Oc2ccc(-c3cc(C4CCOCC4)[nH]n3)cc2)cc1 [MMV687762] | -1.81 | 0.46 | –
21 | Cc1cnc(N2CCN[C@@H](Cc3ccccc3)C2)nc1Oc1ccc(-n2ccnc2)cc1 [MMV687765] | 4.75 | 6.17 | –
22 | CC1(C)OB(O)c2ccc(C3=NOC(c4cc(Cl)c(F)c(Cl)c4)(C(F)(F)F)C3)cc21 (stereo not drawn) [MMV687775] | 11.08 | -0.22 | –
23 | Cc1cc(C2=NOC(c3cc(Cl)c(F)c(Cl)c3)(C(F)(F)F)C2)ccc1C(=O)NCc1ccc2c(c1)C(C)(C)OB2O (stereo not drawn) [MMV687776] | 0.60 | 2.49 | –

Row | Compound | PGI release, % of the Tx-100 control, 5d (5 days of incubation) [%] | PGI release, % of the Tx-100 control, 12d (12 days of incubation) [%] | other results
24 | CC1(C)Cc2c(c(N3CCOCC3)nc3snc(Br)c23)CO1 [MMV687794] | -0.77 | -1.36 | –
25 | NCC[C@H](O)C(=O)N[C@@H]1C[C@H](N)[C@@H](O[C@H]2O[C@H](CN)[C@@H](O)[C@H](O)[C@H]2O)[C@H](O)[C@H]1O[C@H]1O[C@H](CO)[C@@H](O)[C@H](N)[C@H]1O [MMV687796, Amikacin, reference compound] | – | – | cytotoxicity at 10 µM [3]: -1.34%; cytotoxicity at 10 µM [4]: -4.62%
26 | CC(C)/N=c1\cc2n(-c3ccc(Cl)cc3)c3ccccc3nc-2cc1Nc1ccc(Cl)cc1 [MMV687800, Clofazimine, reference compound] | – | – | cytotoxicity at 10 µM [3]: 26.6%; PGI release, % of Tx-100 control at 10 µM (120 h, confirmatory screening at 10 µM in triplicates, 5 days of incubation, values as % of Tx-100 control, read-out: PGI release, % of Tx-100 control, average, 5d): -0.59%; cytotoxicity at 10 µM [4]: 65.6%; PGI release, % of Tx-100 control at 10 µM (288 h, confirmatory screening at 10 µM in triplicates, 12 days of incubation, values as % of Tx-100 control, read-out: PGI release, % of Tx-100 control, average, 12d): 3.89%
27 | CC[C@@H](CO)NCCN[C@@H](CC)CO [MMV687801, Ethambutol, reference compound] | – | – | cytotoxicity at 10 µM [3]: -0.84%; cytotoxicity at 10 µM [4]: 0.29%
28 | CC(=O)NC[C@H]1CN(c2ccc(N3CCOCC3)c(F)c2)C(=O)O1 [MMV687803, Linezolid, reference compound] | – | – | cytotoxicity at 10 µM [3]: -0.58%; cytotoxicity at 10 µM [4]: 0.38%
29 | CN1CCN(CCCOc2ncc(Nc3ncc(-c4ccc(C(F)(F)F)c(F)c4)nc3C(N)=O)cn2)CC1 [MMV687812] | 18.86 | 22.66 | PGI release, % of Tx-100 control, average, 5d [1]: 3.65%; PGI release, % of Tx-100 control, average, 12d [2]: 4.79%
30 | O=C1O[C@@H](COc2ccon2)CN1c1cc(F)c(C2=CCN(Cc3ccccc3)CC2)c(F)c1 [MMV687813] | -0.66 | -1.17 | –
31 | Cc1cccc(-c2nc(Nc3ccncn3)c3sccc3n2)n1 [MMV688122] | 0.14 | 95.49 | PGI release, % of Tx-100 control, average, 5d [1]: -0.80%; PGI release, % of Tx-100 control, average, 12d [2]: -0.86%
32 | CCc1ccc(S(=O)(=O)Nc2cc(CN3CCN(CCC(C)C)CC3)ccc2C)cc1 [MMV688124] | -0.0233 | -0.17 | –
33 | CCCc1ccc(S(=O)(=O)Nc2ccc(CN3CCN(CC4CC4)CC3)cc2)cc1 [MMV688125] | -0.08 | -1.69 | –
34 | c1ccc(Oc2ccc(-c3cncc(-c4ccc5[nH]ccc5c4)n3)cc2)cc1 [MMV688178] | 0.34 | 0.47 | –
35 | NC(N)=Nc1ccc(-c2ccc(-c3ccc(N=C(N)N)cc3Cl)o2)c(Cl)c1 [MMV688179] | -4.57 | 19.83 | –
36 | Cc1nn(C)c(C)c1NS(=O)(=O)c1c(Cl)cc(-c2ccnc(N3CCNCC3)c2)cc1Cl [MMV688180] | -0.14 | 0.11 | –
37 | C[C@]1(COc2ccc(N3CCC(Oc4ccc(OC(F)(F)F)cc4)CC3)cc2)Cn2cc([N+](=O)[O-])nc2O1 [MMV688262, Delaminid, reference compound] | -3.74 | -0.38 | –
38 | COc1ccc(-c2cnc3cnc(-c4cccc(OC(C)C)c4)cn23)cc1 [MMV688270] | 0.02 | -0.02 | –
39 | N=C(N)Nc1ccc(-c2ccc(-c3ccc(N=C(N)N)c(Cl)c3)o2)cc1Cl [MMV688271] | 9.82 | 13.94 | –
40 | Nc1ccc2ncnc(Nc3ccc(OCc4cccc(F)c4)c(Cl)c3)c2c1 [MMV688273] | -1.47 | -4.16 | –
41 | O=C(CN1CCOCC1)Nc1ccc2ncnc(Nc3ccc(OCc4cccc(F)c4)c(Cl)c3)c2c1 [MMV688274] | -0.59 | -0.94 | –
42 | CC1=Nc2ccc(Cl)cc2C(O)(c2ccc(C)cc2)N1CCN1CCCCC1 (stereo not drawn) [MMV688279] | 0.73 | 1.56 | –
43 | CN1CCN(S(=O)(=O)c2ccc(-c3ccc4c(Nc5ncc(Cl)cn5)ccnc4c3)cc2)CC1 [MMV688283] | 0.90 | -1.47 | –
44 | COc1ccc(-c2nnc3ccc(-c4cccc(C(C)C)c4)cn23)cc1OC [MMV688313] | -0.11 | -3.88 | –
45 | CC(=O)NC[C@H]1CN(c2ccc(-c3ccc(CNCc4cnn[nH]4)cc3)c(F)c2)C(=O)O1 [MMV688327, Radezolid, reference compound] | – | – | cytotoxicity at 10 µM [3]: -0.89%; cytotoxicity at 10 µM [4]: -1.52%
46 | CC(=O)N1CCN(c2ccc(Oc3ccc(Cl)cc3O)cc2)CC1 [MMV688330] | -0.72 | -5.52 | –

— publication PMC6216040, “Repurposing of an old drug: In vitro and in vivo efficacies of buparvaquone against Echinococcus multilocularis” (International Journal for Parasitology: Drugs and Drug …, 2018)
